Experiments:
[1] = target: maize starch synthase SSIIa-2, N-terminally truncated SSIIa, first 176 amino acids deleted (493 amino acids), N-terminus GENVMNVI (SEQ ID NO:1) (Zea mays, UniProt A0A804PX87); test: ADPGlc kinetics of starch synthase SSIIa-2; format: biochemical; conditions: for Vmax (ADPGlc kinetics): amylopectin as primer
Description: FIG. 59. SSIIa-1 and SSIIa-2 construct diagram. Two forms of SSIIa were constructed in the pET expression system. pExs3c encodes SSIIa-1, the putative full length maize SSIIa which has the N-terminal sequence AEAEAGGK (SEQ ID NO:68). […] A depiction of the waxy gene, encoding GBSS which has the N-terminal sequence ASAGMNVV (SEQ ID NO:67), is also included for comparison. The amino acid motif KTGGL (SEQ ID NO:10), the putative binding site for ADPGlc, is indicated by the triangles. The KTGGL (SEQ ID NO:10) motif is located 18 amino acids from the N-terminus in GBSS, while the motif is 194 amino acids from the N-terminus in maize SSIIa.
5 mL of supernatant were used to assay STS and SBE activities as previously described (Preiss) with minor modification. […] […] The unincorporated [^14C]-ADPGlc was separated with Dowex anion exchange column (200-400 mesh, Sigma Chemical Co.). One unit of activity is defined as 1 nmol Glc incorporated into the a-glucan per min at 25° C. SBE activity was determined by phosphorylase stimulation assay. One unit of activity is defined as 1 mmol Glc incorporated into the a-glucan per min at. 30° C.
For the recombinant SS purification, the cell pellet was resuspended in sonication buffer (50 mM Tris-acetate, pH 7.5, 10 mM EDTA, and 5 mMDTT; 7 ml buffer per gram of cell mass), and cells were lysed using a Fisher 550 Sonic Dismembrator with 5×1 min. bursts with 30 sec. intervals. The homogenate was centrifuged at 9600 g for 30 minutes. SSI in the supernatant was then precipitated by slowly adding neutralized saturated ammonium sulfate to 40% saturation. After stirring on ice for an additional 50 minutes, proteins were collected by centrifugation at 12500 g for 45 minutes. The protein pellet was then redissolved in buffer A (50 mM Tris, pH 5.5, 1 mM EDTA, and 5 mM DTT) containing 0.1 M KCl and dialyzed against the same buffer, with one change of buffer. After dialysis, the sample was centrifuged at 13000 g for 20 minutes to remove insoluble materials. The resulting supernatant was loaded onto […] pre-equilibrated with dialysis buffer, and the flow through was collected. The column was washed with 10 column volumes of buffer a containing 0.1 M KCl, and then with buffer A containing 0.5 M KCl and 0.5 M maltose, collecting fractions during both washes. The active fractions were pooled and dialyzed overnight against buffer A, with one change of buffer. The next day, the amylase column sample was filtered and applied to a mono Q 5/5 FPLC column (Pharmacia). After washing with buffer A, a 20 ml 0-0,4 M KCl gradient was employed. The active fractions were electrophoresed on an 8% SDS-PAGE gel (31) to determine the purity of SSI in those fractions; the fractions which were apparently homogeneous were pooled and concentrated using a Centricon-30 spin column (Amicon).

[2] = target: T1, maize starch synthase SSI-3 (STSI-3), N-terminally truncated SSI, first 93 amino acids of SSI-1 deleted, N-terminus SIVFVTGE (SEQ ID NO:66) (Zea mays, UniProt O49064); test: ADPGlc kinetics of starch synthase SSI-3; format: biochemical; conditions: 5 mg/ml amylopectin as primer, 37° C.
T1 sequence (O49064 with tags, fused parts or gaps): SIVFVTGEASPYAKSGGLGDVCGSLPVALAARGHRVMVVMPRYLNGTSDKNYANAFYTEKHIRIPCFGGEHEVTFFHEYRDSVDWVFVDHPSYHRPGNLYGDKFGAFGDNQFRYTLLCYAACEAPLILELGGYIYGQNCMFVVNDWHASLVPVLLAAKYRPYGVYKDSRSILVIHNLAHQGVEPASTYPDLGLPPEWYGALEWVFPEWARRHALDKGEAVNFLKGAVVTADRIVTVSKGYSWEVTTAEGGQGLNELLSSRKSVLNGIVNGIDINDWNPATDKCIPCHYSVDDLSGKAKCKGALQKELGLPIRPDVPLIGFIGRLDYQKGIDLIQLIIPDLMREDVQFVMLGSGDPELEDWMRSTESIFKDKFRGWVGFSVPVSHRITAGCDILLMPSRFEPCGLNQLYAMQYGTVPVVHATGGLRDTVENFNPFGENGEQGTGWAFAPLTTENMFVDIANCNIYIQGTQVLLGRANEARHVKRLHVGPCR
Description: FIG. 58. SSI-1, SSI-2, and SSI-3 construct design. Three forms of SSI were constructed in the pET expression (see Methods). pExs10a encodes SSI-1, the full length maize SSI (583 amino acids) which has the N-terminal sequence CVAELSREGP (SEQ ID NO:64). pExs8 encodes a truncated SSI, SSI-2, with amino acids # 8-52 deleted from the N-terminus of SSI-1 and which has the N-terminal sequence CVAELSR/DLG (SEQ ID NO:65). pExs1d encodes the most truncated form of SSI, SSI-3, with the first 93 amino acids deleted from SSI-1 and which has the N-terminal sequence SIVFVTGE (SEQ ID NO:66). A depiction of the waxygene, encoding GBSS, which has the N-terminal sequence ASAGMNW (SEQ ID NO:67), is also included for comparison. The amino acid motif KS/TGGL (SEQ ID NO:9), the putative binding site for ADGPGlc, in indicated by the triangles. The KS/TGGL (SEQ ID NO:9) motif is located 18 amino acids from the N-terminus in GBSS, while the motif is 106 amino acids from the N-terminus in maize SSI. Drawing not to scale.
5 mL of supernatant were used to assay STS and SBE activities as previously described (Preiss) with minor modification. […] The unincorporated [^14C]-ADPGlc was separated with Dowex anion exchange column (200-400 mesh, Sigma Chemical Co.). […] SBE activity was determined by phosphorylase stimulation assay. One unit of activity is defined as 1 mmol Glc incorporated into the a-glucan per min at. […]

Sequence of maize starch synthase SSIIa-2, N-terminally truncated SSIIa, first 176 amino acids deleted (493 amino acids), N-terminus GENVMNVI (SEQ ID NO:1) (A0A804PX87 entry or part of it, stated change not applied): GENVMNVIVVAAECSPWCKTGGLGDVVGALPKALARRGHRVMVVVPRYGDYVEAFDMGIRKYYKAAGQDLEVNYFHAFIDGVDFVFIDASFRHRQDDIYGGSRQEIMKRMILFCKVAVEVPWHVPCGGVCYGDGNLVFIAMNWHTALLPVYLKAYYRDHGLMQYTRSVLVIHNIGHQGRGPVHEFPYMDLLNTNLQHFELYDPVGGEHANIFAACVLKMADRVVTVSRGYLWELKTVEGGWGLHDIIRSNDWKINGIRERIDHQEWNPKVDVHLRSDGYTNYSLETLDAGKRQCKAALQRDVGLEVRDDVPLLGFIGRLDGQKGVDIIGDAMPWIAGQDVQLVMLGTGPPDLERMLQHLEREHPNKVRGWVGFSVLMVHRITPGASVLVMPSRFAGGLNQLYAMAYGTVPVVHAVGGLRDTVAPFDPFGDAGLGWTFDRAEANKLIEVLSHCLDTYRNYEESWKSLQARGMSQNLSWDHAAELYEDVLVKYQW

Nc1ncnc2c1ncn2[C@@H]1O[C@H](COP(=O)(O)OP(=O)(O)O[C@H]2O[C@H](CO)[C@@H](O)[C@H](O)[C@H]2O)[C@@H](O)[C@H]1O [ADPGlc, adenosine diphosphate glucose]
Km for ADPGlc compared with SSIIa-1 ([1]; all assay conditions used except glycogen primer at 27° C.): lower Km for ADPGlc
Vmax (ADPGlc kinetics) ([1]; +citrate, 27° C.): 4.83 ± 0.42 μmol/min/mg protein
Vmax (ADPGlc kinetics) ([1]; +citrate, 37° C.): 11.4 ± 0.6 μmol/min/mg protein
Vmax (ADPGlc kinetics) ([1]; −citrate, 27° C.): 4.87 ± 0.25 μmol/min/mg protein
Vmax (ADPGlc kinetics) ([1]; −citrate, 37° C.): 7.86 ± 0.53 μmol/min/mg protein
effect of raising temperature on Km for ADPGlc ([1]; from 27° C. to 37° C.): not affected by raising temperature
Vm (ADPGlc kinetics) ([2]; +citrate): 26.4 ± 1.4 μmol/min/mg protein
Vm (ADPGlc kinetics) ([2]; −citrate): 14.7 ± 1.3 μmol/min/mg protein

Reference: patent publication US7285703B2, “Plant like starches and the method of making them in hosts” (BASF Plant Science GmbH, priority 1998, dated 2007)
